Source: ChEMBL document CHEMBL1132733, “7-Methoxybenzofuran-4-carboxamides as PDE 4 inhibitors: a potential treatment for asthma” (Bioorg Med Chem Lett, 2000)

How the values were obtained:
[1] = Relative activity against human Phosphodiesterase type 4 (PDE4) and rat rolipram binding protein (RBA); design: reference not given here
Phosphodiesterase 4 [2] = target: Phosphodiesterase 4 (Homo sapiens, UniProt P27815+Q08499+Q07343+Q08493); assay: Inhibition of Phosphodiesterase 4 from human U937 cells; assay type: cell-based; conditions: u-937
Phosphodiesterase 4 [3] = target: T1, Phosphodiesterase 4 (Rattus norvegicus, UniProt P14270+P14646+P14644+P54748); assay: Inhibition of rolipram binding in rat brain tissue; assay type: tissue-based
[4] = target: Phosphodiesterase 3 (Homo sapiens) (UniProt Q14432+Q13370); assay: Inhibition of Phosphodiesterase 3 from human platelets; design: concentration or dose not given beside the values; conditions: concentration not given here
Phosphodiesterase 4 [5] = target: T1, Phosphodiesterase 4; assay: Inhibition of rolipram binding to rat brain tissue at 20 uM; assay type: tissue-based
Phosphodiesterase 4 [6] = target: T1, Phosphodiesterase 4; assay: Inhibition of rolipram binding to rat brain tissue; assay type: tissue-based

Compound | Ratio [1] | IC50 (Phosphodiesterase 4 [2]) [µM] | IC50 (Phosphodiesterase 4 [3]) [µM] | inhibition [4] [%] | IC50 (Phosphodiesterase 4 [5]) [µM] | IC50 (Phosphodiesterase 4 [6]) [µM]
CCc1cc2c(C(=O)Nc3c(Cl)cncc3Cl)ccc(OC)c2o1 |  | 0.027 |  | 46 |  | 
COc1ccc(C(=O)Nc2c(Cl)cncc2Cl)c2cc(C(=O)c3ccncc3)oc12 | 0.3 | 0.00241 |  | 7 | 0.0081 | 
COc1ccc(C(=O)Nc2c(Cl)cncc2Cl)c2cc(C(C)O)oc12 (stereo not given) |  | 0.0086 |  | 23 |  | 
COc1ccc(C(=O)Nc2ncncc2Cl)c2cc(C(C)=O)oc12 | 2.75 | 0.164 | 0.0596 |  |  | 
COc1ccc(C(=O)Nc2c(Cl)cncc2Cl)c2c(C)c(C(C)=O)oc12 |  | 0.32 | 0.16 |  |  | 
COc1ccc(C(=O)Nc2c(Cl)cncc2Cl)c2cc(CC(C)(C)C)oc12 |  | 0.017 |  | 34 |  | 
COc1ccc(C(=O)Nc2c(Cl)cncc2Cl)c2cc(C(=O)O)oc12 |  | 0.77 |  | 38 |  | 
COc1ccc(C(=O)N(C)c2c(Cl)cncc2Cl)c2cc(C(C)=O)oc12 |  | 0.33 | 0.15 |  |  | 
COc1ccc(C(=O)Nc2c(Cl)cncc2Cl)c2cc(C(C)=O)oc12 |  | 0.0016 |  | 32 |  | 

Further lines, results first:

Ratio [1] | IC50 (Phosphodiesterase 4 [2]) [µM] | IC50 (Phosphodiesterase 4 [3]) [µM] | inhibition [4] [%] | IC50 (Phosphodiesterase 4 [5]) [µM] | IC50 (Phosphodiesterase 4 [6]) [µM] | Compound
0.48 | 0.12 | 0.25 |  |  |  | COc1ccc(C(=O)Nc2ccncc2)c2cc(C(C)=O)oc12
4.4 | 0.875 | 0.199 |  |  |  | COc1ccc(C(=O)Nc2cccnc2Cl)c2cc(C(C)=O)oc12
0.24 | 0.452 | 1.85 |  |  |  | COc1ccc(C(=O)Nc2ncccc2C)c2cc(C(C)=O)oc12
0.21 | 0.054 |  |  |  | 0.248 | COc1ccc(C(=O)Nc2ccccc2Cl)c2cc(C(C)=O)oc12
 |  |  | 31 |  |  | COc1ccc(C(=O)Nc2c(Cl)cncc2Cl)c2cc(C#N)oc12
0.197 | 0.0063 | 0.032 |  |  |  | COc1ccc(C(=O)Nc2ccncc2Cl)c2cc(C(C)=O)oc12
0.37 | 0.0851 | 0.228 |  |  |  | COc1ccc(C(=O)Nc2c(Cl)cc(C#N)cc2Cl)c2cc(C(C)=O)oc12
